Measurements reported in patent US20260138969A1 (Korea Research Institute of Chemical Technology, priority 2023, published 2026).

Key:
[1] = target: T1, recombinant human ASK1 protein (Homo sapiens, UniProt Q99683); test: Evaluation of ASK1 inhibition activity ([gamma-33P]-ATP, scintillation counting); format: biochemical
T1 sequence (Q99683 1-1374): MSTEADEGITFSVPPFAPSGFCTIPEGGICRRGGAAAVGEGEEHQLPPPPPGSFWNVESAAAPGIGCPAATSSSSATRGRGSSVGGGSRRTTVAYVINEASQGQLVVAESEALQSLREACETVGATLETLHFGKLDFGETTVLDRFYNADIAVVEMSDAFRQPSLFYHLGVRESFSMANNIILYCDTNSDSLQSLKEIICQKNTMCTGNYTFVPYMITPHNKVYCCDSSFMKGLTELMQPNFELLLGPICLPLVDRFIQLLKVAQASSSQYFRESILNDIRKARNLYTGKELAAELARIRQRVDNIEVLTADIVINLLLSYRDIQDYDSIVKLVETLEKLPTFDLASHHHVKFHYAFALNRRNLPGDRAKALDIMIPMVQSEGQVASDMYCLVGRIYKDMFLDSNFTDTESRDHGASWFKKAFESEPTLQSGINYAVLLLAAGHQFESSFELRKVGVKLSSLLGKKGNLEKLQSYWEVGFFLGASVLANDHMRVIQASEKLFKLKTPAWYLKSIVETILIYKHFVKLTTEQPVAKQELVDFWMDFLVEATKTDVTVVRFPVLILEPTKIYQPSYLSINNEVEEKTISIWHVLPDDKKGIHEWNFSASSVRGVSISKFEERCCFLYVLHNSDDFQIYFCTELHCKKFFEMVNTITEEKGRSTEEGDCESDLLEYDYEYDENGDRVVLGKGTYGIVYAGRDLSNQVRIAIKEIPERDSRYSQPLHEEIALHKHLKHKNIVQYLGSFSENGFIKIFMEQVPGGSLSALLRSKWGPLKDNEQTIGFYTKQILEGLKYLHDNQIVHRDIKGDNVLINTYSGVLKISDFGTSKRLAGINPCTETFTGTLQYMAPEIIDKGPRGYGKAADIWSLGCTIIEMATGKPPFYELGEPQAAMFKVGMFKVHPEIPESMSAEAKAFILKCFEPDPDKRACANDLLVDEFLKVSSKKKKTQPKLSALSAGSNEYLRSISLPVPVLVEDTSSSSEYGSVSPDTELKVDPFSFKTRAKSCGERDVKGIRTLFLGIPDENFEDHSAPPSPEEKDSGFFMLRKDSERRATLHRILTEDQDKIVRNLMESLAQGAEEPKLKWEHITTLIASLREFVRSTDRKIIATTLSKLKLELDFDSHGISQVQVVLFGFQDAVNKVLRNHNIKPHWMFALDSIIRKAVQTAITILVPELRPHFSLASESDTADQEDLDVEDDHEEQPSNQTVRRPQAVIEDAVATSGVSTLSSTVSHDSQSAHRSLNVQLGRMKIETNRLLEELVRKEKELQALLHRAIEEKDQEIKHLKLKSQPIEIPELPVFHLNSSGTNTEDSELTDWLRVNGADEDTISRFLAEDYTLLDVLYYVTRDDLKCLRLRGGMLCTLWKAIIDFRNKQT
Method: The recombinant human ASK1 protein was initiated by adding a mixture of Mg/ATP to the reaction solution (8 mM MOPS PH 7.0, 0.2 mM EDTA, 0.33 mg/mL myelin basic protein, 10 mM Mg Acetate and [gamma-33P]-ATP), and the reaction was terminated by adding 0.5% phosphoric acid after 40 min at room temperature.

[2] = MDR-MDCK cell membrane permeability assessment; format: in vitro ADME; conditions: dog; MDCK-MDR1 monolayer, 37° C., 2 hours
Method: (§1) MDCK-MDR1 cells (5×10^5 cells/mL) were incubated on a 24-transwell plate (Corning, NY, USA) for 4 days to measure permeability through a single layer of MDR-MDCK cells. The medium was replaced with a new medium every two days, and the electrical resistance between epithelial tissues (TEER) was measured using a Millicell® ERS-2 Volohmmeter (Merck KGaA, Darmstadt, Germany), and the cell membrane permeability test was performed after confirming that this value was greater than or equal to 300 Ohm.cm^2.
(§2) The apical and basolateral chambers were washed twice each in the order of Hanks' Balanced Salt Solution (HBSS) containing DPBS buffer and 10 mM Hydroxyethyl piperazine Ethane sulfonic acid (HEPES), and in the final washing step, HBSS was filled and maintained at a stable state at 37° C. for 30 minutes. After 30 minutes, the test material was instilled in each chamber and left at 37° C. for 2 hours, and the culture medium of the transferred layer was collected at 30-minute intervals, and the collected amount was supplemented with new HBSS.
(§3) The apparent permeability coefficient (Papp, cm/sec) was calculated using the following formula:
(§4) [formula] • Papp: Apparent permeability • dQ/dt: Permeability of the drug • A: Area of the filter membrane on which the cells are laid • C_0: Initial concentration of the drug
(§5) In addition, the Efflux ratio was calculated as follows: […]

MDR1 = test: MDR-MDCK cell membrane permeability assessment; format: in vitro ADME; conditions: dog; MDCK-MDR1 monolayer
Method: as §1, §2, §3, §4, §5

[3] = tested on: α-Syn transgenic Parkinson's disease mouse model; test: α-Syn transgenic Parkinson's disease mouse model: step error (beam test); format: in vivo; conditions: at 7 and 9 months; Memantine 10 mg/kg, Example 3 2/10/50 mg/kg, Example 2 2 mg/kg PO QD; vs G2
Method: (§6) The test drug was administered once daily (QD) via oral administration (PO) with a solution of 5 ml/kg for 5 months from 4 months to 9 months of age. Motor behavior tests (beam test) and neurological scores (modified Irwin test) were performed at 4 months (before administration), 7 months, and 9 months. After the final behavioral test, tissue samples were taken. Weight was measured on the same day once a week from 4 months of age until the end of the study.
The procedure described by Fleming et al. (J Neurosci, 24:9434-40, 2004) was adopted as the beam test (Challenging Beam Traversal). Exercise capacity was measured with a new beam test that was a modification of the existing beam walking test. The beam is made of Plexiglas and consists of four sections (each 25 cm and a total length of 1 m), each with a different width. The beam is designed to start at 3.5 cm wide and gradually narrow in increments of 0.5 cm×1 cm. A shelf 1 cm wide was placed 1.0 cm below the top surface of the beam.
The mouse was trained to cross the length of the beam, starting from the widest section and ending with the narrowest and most difficult section. The narrow end of the beam is designed to connect directly to the mouse's house cage. The mice were trained for two days before testing, and all training was carried out without a mesh grid. On the first day, two auxiliary exercises were performed, in which the mouse was placed on a beam and the home cage was placed close to the mouse. This induces it to move forward along the beam. […]
The error was counted if the limb (front or hind leg) passed through the grid during forward movement and was visible between the grid and the beam surface. […] Error was measured by scoring each limb slippage individually. For example, a mouse with three limbs slipping off the grid in one step was rated with an error score of 3 points, while a mouse with only one limb slipped off the grid in one step was evaluated with an error score of 1 in that step. […] The number of step errors and the time it took to cross were measured and averaged in all five experiments.

[4] = tested on: α-Syn transgenic Parkinson's disease mouse model; test: α-Syn transgenic Parkinson's disease mouse model: microglial reduction (Iba-1); format: in vivo; conditions: 9 months of age; Memantine 10 mg/kg (G3), G4 2 mg/kg, G5 10 mg/kg, G7 2 mg/kg PO QD
Method: as §6
At 9 months of age, the measurement period ended, the mice were anesthetized, and then the experiment was terminated by cardiac puncture according to IACUC guidelines. Mice were perfused transcardially with 0.9% saline for tissue staining, followed by 4% paraformaldehyde until the mice were fixed. The brains were isolated and immobilized by soaking in 4% paraformaldehyde at 4° C. for 24 hours, followed by 30% sucrose added to PBS containing 0.02% sodium azide and stored at 4° C. for 3 days. Brain samples embedded in OCT compounds were sectioned to a thickness of 20 μm using Leica CM1950 (Leica Microsystems, Germany). The sections were stored at 4° C. in a preservation solution until they were stained by antibodies. […]
To assess microgliosis of the cortex, Iba-1-stained brain tissue was imaged in experimental example 10.5 using an immunofluorescence microscope (Olympus, BZ21) in Olympus. Each marker was manually counted to quantify Iba1.

| IC50 [1] | Papp A→B at 2 h [2] | Papp B→A at 2 h [2] | efflux ratio at 2 h (MDR1) | SMILES | number of step errors (beam test) [3] | number of IBA-1 positive cells in the cerebral cortex [4] |
| --- | --- | --- | --- | --- | --- | --- |
| 92 nM | 57.3 ± 4.23 ×10⁻⁶ cm/s | 87.4 ± 3.39 ×10⁻⁶ cm/s | 1.53 | Cc1cc(F)c(C(=O)Nc2cccc(-n3nnc4c3CCCCC4)n2)cc1-n1cnc(C2CC2)c1 [Example 4, 5-(4-cyclopropyl-1H-imidazole-1-yl)-2-fluoro-4-methyl-N-(6-(5,6,7,8-tetrahydrocyclohepta[d][1,2,3]triazole-1 (4H)-yl)pyridine-2-yl)benzamide] | – | – |
| – | – | – | – | CC12CC3CC(C)(C1)CC(N)(C3)C2 [Memantine, reference compound] | significant reduction in the number of step errors compared to Group G2 | significantly reduced |
